Data from the NIST ThermoML archive (doi:10.1016/j.fluid.2015.03.040).
Numbers after ± are expanded uncertainties.

Tests used:
[1] = 101 kPa, Liquid mixture 1, Drop volume
[2] = 298.15 K; for surface tension liquid-gas: Maximal bubble pressure; for mass density: 101.33 kPa, Liquid, Vibrating tube method
[3] = refractive index (Na D-line) (dimensionless); conditions: 298.15 K; 101.33 kPa; Liquid; Standard Abbe refractometry

SMILES	interfacial tension ([1]; 278.15 K)	interfacial tension ([1]; 288.15 K)	interfacial tension ([1]; 298.15 K)	interfacial tension ([1]; 308.15 K)	interfacial tension ([1]; 318.15 K)	interfacial tension ([1]; 328.15 K)	interfacial tension ([1]; 338.15 K)	interfacial tension ([1]; 348.15 K)	interfacial tension ([1]; 358.15 K)	surface tension liquid-gas [2]	mass density [2]	refractive index [3]
CCCCCCCO [heptan-1-ol] + O	6.61 ± 0.08 mN/m	7.09 ± 0.08 mN/m	7.4 ± 0.08 mN/m	7.56 ± 0.08 mN/m	7.73 ± 0.08 mN/m	7.96 ± 0.08 mN/m	7.9 ± 0.08 mN/m	7.82 ± 0.08 mN/m	7.74 ± 0.08 mN/m			
COC(C)(C)C [2-methoxy-2-methylpropane] + O	7.8 ± 0.08 mN/m	8.83 ± 0.09 mN/m	9.8 ± 0.09 mN/m	10.8 ± 0.1 mN/m	11.7 ± 0.1 mN/m							
CC(C)OC(C)C [diisopropyl ether]										16.9 ± 0.16 mN/m	718.89 ± 0.15 kg/m3	1.3665 ± 0.00031
CCCCO [butan-1-ol] + O	1.49 ± 0.05 mN/m	1.63 ± 0.05 mN/m	1.68 ± 0.05 mN/m	1.69 ± 0.05 mN/m	1.63 ± 0.05 mN/m	1.54 ± 0.05 mN/m	1.39 ± 0.05 mN/m	1.2 ± 0.05 mN/m	1.04 ± 0.05 mN/m			
CCOC(C)(C)C [2-ethoxy-2-methylpropane] + O	14 ± 0.11 mN/m	15.5 ± 0.12 mN/m	16.6 ± 0.12 mN/m	17.8 ± 0.13 mN/m	18.7 ± 0.13 mN/m	19.3 ± 0.14 mN/m						
CCCCCCCCO [octan-1-ol] + O	6.99 ± 0.08 mN/m	7.53 ± 0.08 mN/m	7.97 ± 0.08 mN/m	8.41 ± 0.09 mN/m	8.62 ± 0.09 mN/m	8.67 ± 0.09 mN/m	8.81 ± 0.09 mN/m					
CCOC(C)(C)C [2-ethoxy-2-methylpropane]										19.73 ± 0.17 mN/m	736.65 ± 0.14 kg/m3	1.37468 ± 0.00031
CCCCCCCCO [octan-1-ol]										28 ± 0.2 mN/m	822.25 ± 0.11 kg/m3	1.42884 ± 0.00031
CCCCCO [pentan-1-ol]										24.7 ± 0.2 mN/m	810.89 ± 0.12 kg/m3	1.40941 ± 0.00032
CCC(C)(C)OC [2-methoxy-2-methylbutane] + O	12.2 ± 0.1 mN/m	13.2 ± 0.11 mN/m	14.5 ± 0.11 mN/m	15.5 ± 0.12 mN/m	16.3 ± 0.12 mN/m	17 ± 0.13 mN/m	17.5 ± 0.13 mN/m					
C1CCOCC1 [tetrahydropyran]										28 ± 0.21 mN/m	879.44 ± 0.09 kg/m3	1.42004 ± 0.00031
CCCCCCCO [heptan-1-ol]										27.4 ± 0.21 mN/m	818.93 ± 0.11 kg/m3	1.42384 ± 0.00031
C1CCOCC1 [tetrahydropyran] + O	4.64 ± 0.07 mN/m	5.19 ± 0.07 mN/m	5.78 ± 0.07 mN/m	6.35 ± 0.08 mN/m	6.75 ± 0.08 mN/m	7.28 ± 0.08 mN/m	7.45 ± 0.08 mN/m					
CCCCCO [pentan-1-ol] + O	3.96 ± 0.07 mN/m	4.24 ± 0.07 mN/m	4.35 ± 0.07 mN/m	4.5 ± 0.07 mN/m	4.51 ± 0.07 mN/m	4.43 ± 0.07 mN/m	4.37 ± 0.07 mN/m	4.21 ± 0.07 mN/m	3.94 ± 0.07 mN/m			
CC(C)OC(C)C [diisopropyl ether] + O	15.2 ± 0.12 mN/m	16.3 ± 0.12 mN/m	17.7 ± 0.13 mN/m	18.7 ± 0.13 mN/m	19.7 ± 0.14 mN/m	21.1 ± 0.15 mN/m						
O [water]										71.94 ± 0.41 mN/m	996.7 ± 0.04 kg/m3	1.33374 ± 0.00031
CCCCCCO [hexan-1-ol] + O	5.77 ± 0.07 mN/m	6.06 ± 0.07 mN/m	6.29 ± 0.08 mN/m	6.16 ± 0.08 mN/m	6.18 ± 0.08 mN/m	6.29 ± 0.08 mN/m	6.14 ± 0.08 mN/m	6 ± 0.07 mN/m				
CCC(C)(C)OC [2-methoxy-2-methylbutane]										20.3 ± 0.17 mN/m	765.91 ± 0.14 kg/m3	1.38736 ± 0.00032
COC(C)(C)C [2-methoxy-2-methylpropane]										17.5 ± 0.16 mN/m	735.31 ± 0.14 kg/m3	1.36764 ± 0.00031
